Test system: Plasmodium falciparum
Assay: antimalarial activity in in vitro cultures of Plasmodium falciparum, inhibition of [3H]-hypoxanthine incorporation
Format: cell-based
Conditions: inhibition of tritium incorporation relative to comparison without substance, 48 h + 24 h incubation; for inhibition at 10 µM / inhibition at 100 µM: Plasmodium falciparum; for inhibition at 10 µM / % Inhibition at 10 μM: 10 μM compound; for inhibition at 100 µM / % Inhibition at 100 μM: 100 μM compound; for % Inhibition at 1 μM: 1 μM compound
Experimental: To determine the anti-malaria activity, for example, the inhibition of the growth of malaria parasites in blood cultures is determined. […] The plates are incubated at 37° C., 3% CO2 and 5% O2 over a period of 48 hours. 30 μl of medium supplemented with 27 μCi ml^−1 [^3H]-hypoxanthine were then added to each well. After 24 hours' incubation, the parasites were harvested by filtration through glass fiber filters and the incorporated radioactivity was measured. Inhibition of parasite growth was measured as the percentage inhibition of tritium incorporation relative to a comparison without substance. The table states the percentage inhibition in dependence of the concentrations.

Compound	inhibition at 10 µM	inhibition at 100 µM	% Inhibition at 10 μM	% Inhibition at 100 μM	% Inhibition at 1 μM
CCCCCCCCCCCCCCCCCCCC(=O)Nc1ccc(NC(=O)Cc2ccc(C)cc2)c(C(=O)c2ccccc2)c1 [compound 10, N-[3-benzoyl-4-[[2-(4-methylphenyl)acetyl]amino]phenyl]eicosanoic Acid Amide]	0%	99%	–	–	–
CCCCCCCCCCCCCCCC(=O)NCCC(=O)Nc1ccc(NC(=O)Cc2ccccc2)c(C(=O)c2ccccc2)c1 [compound 11, N-[3-[3-benzoyl-4-[(2-phenylacetyl)amino]phenylamino]-3-oxopropyl]-hexadecanoic Acid Amide]	0%	98%	–	–	–
Cc1ccc(CC(=O)Nc2ccc(NC(=O)CNC(=O)C=Cc3ccc(-c4ccccc4)cc3)cc2C(=O)c2ccccc2)cc1 [compound 12, N-[2-[3-benzoyl-4-[[2-(4-methylphenyl)acetyl]amino]phenylamino]-2-oxo-ethyl]-4-phenylcinnamic Acid Amide]	67%	89%	–	–	–
O=C(C=Cc1ccc(OCc2ccccc2)cc1)NCCC(=O)Nc1ccc(NC(=O)Cc2ccccc2)c(C(=O)c2ccccc2)c1 [compound 13, N-[3-[3-benzoyl-4-[(2-phenylacetyl)amino]phenylamino]-3-oxopropyl]-4-benzyl-oxycinnamic Acid Amide]	97%	95%	–	–	–
Cc1ccc(CC(=O)Nc2ccc(NC(=O)c3cccnc3)cc2C(=O)c2ccccc2)cc1 [compound 14, N-[3-benzoyl-4-[2-(4-methylphenyl)acetyl]amino]phenylnicotinic Acid Amide]	–	–	0%	34%	–
Cc1ccc(CC(=O)Nc2ccc(NC(=O)c3ccccc3)cc2C(=O)c2ccccc2)cc1 [compound 15]	–	–	77%	96%	0%
Cc1ccc(CC(=O)Nc2ccc(NC(=O)Cc3ccccc3)cc2C(=O)c2ccccc2)cc1 [compound 16]	–	–	0%	94%	0%
Cc1ccc(CC(=O)Nc2ccc(NC(=O)CCc3ccccc3)cc2C(=O)c2ccccc2)cc1 [compound 17]	–	–	91%	94%	0%
Cc1ccc(CC(=O)Nc2ccc(NC(=O)CCC3CCCCC3)cc2C(=O)c2ccccc2)cc1 [compound 18]	–	–	98%	98%	9%
Cc1ccc(CC(=O)Nc2ccc(NC(=O)CCCc3ccccc3)cc2C(=O)c2ccccc2)cc1 [compound 19]	–	–	95%	97%	0%
Cc1ccc(CC(=O)Nc2ccc(NC(=O)CCCCc3ccccc3)cc2C(=O)c2ccccc2)cc1 [compound 20]	–	–	94%	97%	0%
Cc1ccc(CC(=O)Nc2ccc(NC(=O)C=Cc3ccccc3)cc2C(=O)c2ccccc2)cc1 [compound 21]	–	–	95%	94%	0%
Cc1ccc(CC(=O)Nc2ccc(NC(=O)C=Cc3ccc([N+](=O)[O-])cc3)cc2C(=O)c2ccccc2)cc1 [compound 22]	–	–	82%	88%	0%
Cc1ccc(CC(=O)Nc2ccc(NC(=O)C=Cc3ccc(-c4ccccc4)cc3)cc2C(=O)c2ccccc2)cc1 [compound 23, N-[3-[3-benzoyl-4-[2-(4-methylphenyl)acetyl]amino]phenylamino]-4-phenyl-cinnamic Acid Amide]	–	–	94%	94%	82%
Cc1ccc(CC(=O)Nc2ccc(NC(=O)C=Cc3ccc(OCc4ccccc4)cc3)cc2C(=O)c2ccccc2)cc1 [compound 24]	–	–	96%	97%	85%
Cc1ccc(CC(=O)Nc2ccc(NC(=O)c3cccc4ccccc34)cc2C(=O)c2ccccc2)cc1 [compound 26]	–	–	65%	93%	0%

Compound	inhibition at 10 µM	inhibition at 100 µM	% Inhibition at 10 μM	% Inhibition at 100 μM	% Inhibition at 1 μM
Cc1ccc(CC(=O)Nc2ccc(NC(=O)C3c4ccccc4-c4ccccc43)cc2C(=O)c2ccccc2)cc1 [compound 28]	–	–	0%	98%	0%
Cc1ccc(CC(=O)Nc2ccc(-c3ccccc3CNC(=O)CS)cc2C(=O)c2ccccc2)cc1 [compound 29]	–	–	91%	97%	0%
Cc1ccc(CC(=O)Nc2ccc(NC(=O)COCc3ccccc3)cc2C(=O)c2ccccc2)cc1 [compound 30]	–	–	93%	97%	0%
Cc1ccc(CC(=O)Nc2ccc(NC(=O)CSCc3ccc([N+](=O)[O-])cc3)cc2C(=O)c2ccccc2)cc1 [compound 32]	–	–	0%	96%	0%
COC(=O)CC(=O)Nc1ccc(NC(=O)C(C)c2ccccc2)c(C(=O)c2ccccc2)c1 (stereo not shown) [example 1, 2-[N-[3-[3-benzoyl-4-(2-phenylpropionyl)amino]phenylamino]carbamoyl]acetic Acid Methylester]	–	–	19%	89%	–
COC(=O)CC(=O)Nc1ccc(NC(=O)Cc2ccc(C)cc2)c(C(=O)c2ccccc2)c1 [example 2]	–	–	19%	95%	–
Cc1ccc(CC(=O)Nc2ccc(NC(=O)CCC(=O)O)cc2C(=O)c2ccccc2)cc1 [example 3]	–	–	0%	38%	–
COC(=O)CCC(=O)Nc1ccc(NC(=O)Cc2ccc(C)cc2)c(C(=O)c2ccccc2)c1 [example 4]	–	–	0%	29%	–
Cc1ccc(CC(=O)Nc2ccc(NC(=O)CCCC(=O)O)cc2C(=O)c2ccccc2)cc1 [example 5]	–	–	0%	59%	–
COC(=O)CCCC(=O)Nc1ccc(NC(=O)Cc2ccc(C)cc2)c(C(=O)c2ccccc2)c1 [example 6]	–	–	0%	98%	–
CCCCCCCCCCCCCCCCC(=O)NCC(=O)Nc1ccc(NC(=O)Cc2ccc(C)cc2)c(C(=O)c2ccccc2)c1 [example 7, N-[2-[3-benzoyl-4-[[2-(4-methylphenyl)acetyl]amino]phenylamino]-2-oxoethyl]-heptadecanoic Acid Amide]	0%	83%	–	–	–
CCCCCCCCCCCCCCC(=O)NCCCC(=O)Nc1ccc(NC(=O)Cc2ccc(C)cc2)c(C(=O)c2ccccc2)c1 [example 8, N-[4-[3-benzoyl-4-[[2-(4-methylphenyl)acetyl]amino]phenylamino]-4-oxobutyl]-pentadecanoic Acid Amide]	0%	93%	–	–	–
CCCCCCCCCCCCCCNC(=O)CCCC(=O)Nc1ccc(NC(=O)Cc2ccc(C)cc2)c(C(=O)c2ccccc2)c1 [example 9]	–	–	0%	96%	–
N-[2-[3-benzoyl-4-[[2-(4-methylphenyl)acetyl]amino]phenylamino]-2-oxo-ethyl]-4-benzoic Acid Amide [compound 25]	–	–	0%	86%	0%
N-[3-benzoyl-4-[2-(4-methylphenyl)acetyl]amino]phenyl]-4-(4-nitrophenyl)butyric Acid Amide [compound 31]	–	–	93%	96%	0%
